Starred links: 1 amine or outer side, 2 acyl side, 3 side chain; linkers in the order of their positions; H or OH if unused. Positions of bridges follow the written chain, without caps; N, C: chain ends. Non-standard residues stand in square brackets, D forms with d. Residues, ends and D or L forms follow the SMILES beside them. ξ: configuration not given here. ξOrn(4,5-diOH) = O=C(C(CC(O)C(O)N[*:3])N[*:1])[*:2]; ξhTyr(βξ-OH,γξ-OH) = NC(C(=O)O)C(O)C(O)c1ccc(O)cc1; X1 = NC(=O)CC(O)C(N[*:1])C(=O)[*:2]; X2 = O=C(C1C(O)CCN1[*:1])[*:2]; Hyp = O=C(O)[CH]1C[CH](O)CN1
Test system: Candida albicans
Assay: Candida albicans bioassay
Type: cell-based
Conditions: bioassay used to monitor HPLC fractions
Protocol: In carrying out the reaction, Compound A, either as a purified compound or as a partially purified sample obtained from the deacylation of Compound B, is dissolved in dry dimethylformamide and the resulting solution intimately contacted with RCOX. The order of addition is not critical. The resulting mixture is stirred at room temperature for about 16 to 20 hours (conveniently overnight) whereupon a reaction takes place with the formation of Compound I. At the end of this period, the dimethylformamide is removed by concentrating in vacuo at 40°C and the resulting residue triturated, preferably sequentially, twice with ether, and then filtered. The filter cake product is generally a free flowing solid and is purified by reverse phase HPLC, typically in 0.5 gram aliquots employing acetonitrile/water as eluting agent. Fractions containing the purified product as determined by C. albicans assay, by U.V. or by refractive index are combined and first concentrated under reduced pressure and then lyophilized to separate the product.

CC(O)C1NC(=O)C(N)CC(O)C(O)NC(=O)C2C(O)CCN2C(=O)C(C(O)CC(N)=O)NC(=O)C(C(O)C(O)c2ccc(O)cc2)NC(=O)C2CC(O)CN2C1=O (stereo not drawn) [non-acylated cyclohexapeptide compound] (H-[ξOrn(4,5-diOH)]T[Hyp][ξhTyr(βξ-OH,γξ-OH)][X1][X2]; lactam 1-C; configuration not given here)
activity against Candida albicans: inactive
